Results on 21 compounds are retold here after patent US20260226084A1, “DUAL RAF AND TUBULIN INHIBITORS AND METHODS OF USE THEREOF” (Deciphera Pharmaceuticals, LLC, priority 2023, published 2026).

Like-named read-outs stand apart in the source and are kept apart here.

One assay relates to HCT-116 cells. In words: HCT-116 Cell Proliferation Assay. It counts as cell-based. The note with it: Homo sapiens, HCT-116, HCT-116 cells; Table 2; read-out: Inhibition of cell proliferation in HCT-116 (IC50 class). The procedure: HCT-116 cells (catalog #CCL-247) are obtained from the American Type Culture Collect (ATCC, Manassas, VA). Briefly, cells are grown in McCoy's 5A supplemented with 10% characterized fetal bovine serum (Invitrogen, Carlsbad, CA) and 1% Penicillin/Streptomycin/L-Glutamine at 37° C., 5% CO2, and 95% humidity. Cells are expanded until reaching 70-95% confluency at which point they are subcultured or harvested for assay use. A serial dilution of test compound is dispensed into a 384-well black clear bottom plate in triplicate. 375 cells are added per well in 50 μL complete growth medium in the 384-well plate. Plates are incubated for 67 to 72 hours at 37° C., 5% CO2, and 95% humidity. At the end of the incubation, 40 μL of a […] solution of resazurin (Sigma, St. Louis, MO) in PBS is added to each well of the plate and plates are incubated for an additional 4 to 5 h at 37° C., 5% CO2, and 95% humidity. Plates are read on a Synergy2 or equivalent reader (Biotek, Winooski, VT) using an excitation of 540 nm and an emission of 600 nm. Data is analyzed using Prism software (Graphpad, San Diego, CA) to calculate IC50 values.

A further assay relates to HPAF-II cells. In words: HPAF-II Cell Proliferation Assay. It is filed as cell-based. The note with it: Homo sapiens, HPAF-II, HPAF-II cells; Table 2; read-out: Inhibition of cell proliferation in HPAF-II (IC50 class). The protocol: (§1) HPAF-II cells (catalog #CRL-1997) are obtained from the American Type Culture Collect (ATCC, Manassas, VA). Briefly, cells are grown in Minimum Essential Media supplemented with 10% characterized fetal bovine serum (Invitrogen, Carlsbad, CA) and 1% Penicillin/Streptomycin/L-Glutamine at 37° C., 5% CO2, and 95% humidity. Cells are expanded until reaching 70-95% confluency at which point they are sub-cultured or harvested for assay use. A serial dilution of test compound is dispensed into a 384-well black clear bottom plate in triplicate. 750 cells are added per well in 50 μL complete growth medium in the 384-well plate. Plates are incubated for 115 to 120 hours at 37° C., 5% CO2, and 95% humidity. At the end of the incubation, 40 μL of a 440 μM solution of resazurin (Sigma, St. Louis, MO) in PBS is added to each well of the plate and plates are incubated for an additional 18 to 24 hours at 37° C., 5% CO2, and 95% humidity. Plates are read on a Synergy2 or equivalent reader (Biotek, Winooski, VT) using an excitation of 540 nm and an emission of 600 nm. Data is analyzed using Prism software (Graphpad, San Diego, CA) to calculate IC50 values.

The test system of a further assay is Pa16c cells. The assay can be described thus: Pa16c Cell Proliferation Assay. The following applies: Table 2, read-out: Inhibition of cell proliferation in Pa16c (IC50 class). It counts as cell-based. The procedure:
as §1, with “Pa16c” for “HPAF-II”, “cells” for “cells (catalog #CRL-1997)”, “Dr. Channing Der, University of North Carolina at Chapel Hill.” for “the American Type Culture Collect (ATCC, Manassas, VA).”, “Dulbecco's Modified Eagle Medium” for “Minimum Essential Media”, “67” for “115”, “72 h” for “120 hours”

Assay [1] concerns the target T1, C-Raf kinase (SEQ ID NO: 2) (Homo sapiens, UniProt P04049, Y340D/Y341D).
T1 construct: C-Raf residues 306-end; Y340D, Y341D with; GST (N); purchased Sigma
The assay can be described thus: Biochemical Assay for C-Raf (coupled pyruvate kinase/lactate dehydrogenase assay). The note with it: 1 mM ATP; read-out: CRAF (inhibition of biochemical activity, IC50).

The target of assay [2] is T2, B-Raf kinase (SEQ ID NO: 1) (Homo sapiens, UniProt P15056).
T2 construct: GST (N); purchased Sigma
The assay can be described thus: Biochemical Assay for B-Raf (coupled pyruvate kinase/lactate dehydrogenase assay). The following applies: 1 mM ATP; read-out: BRAF (inhibition of biochemical activity, IC50).

The test system of a further assay is MiaPaca-2 cells. In words: MiaPaca-2 Cell Proliferation Assay. It counts as cell-based. The following applies: Table 2, read-out: Inhibition of cell proliferation in MiaPaca-2 (IC50 class). The procedure: Miapaca-2 cells (catalog #CRL-1420) are obtained from the American Type Culture Collect (ATTC, Manassas, VA). Briefly, cells were grown in DMVEM supplemented with 10 characterized fetal bovine serum (Invitrogen, Carlsbad, CA), 2.5% New Zealand sourced horse serum and 1 Penicillin/Streptomycin/L-Glutamine at 37° C., 5 CO2, and 95% humidity. Cells are expanded until reaching 70-95% confluency at which point they are sub-cultured or harvested for assay use. A serial dilution of test compound is dispensed into a 96-well black clear bottom plate in triplicate. Three thousand cells are added per well in 200 μL complete growth medium in the 96-well plate. Plates are incubated for 67 to 72 h at 37° C., 5% CO2, and 95% humidity. At the end of the incubation, 40 μL of a 440 μM solution of resazurin (Sigma, St. Louis, MO) in PBS is added to each well of the plate and plates are incubated for an additional 5 to 6 h at 37° C., 5% CO2, and 95% humidity. Plates are read on a Synergy2 or equivalent reader (Biotek, Winooski VT) using an excitation of 540 nm and an emission of 600 nm. Data is analyzed using Prism software (Graphpad, San Diego, CA) to calculate IC50 values.

Setting [3] is: Homo sapiens, MIA PaCa-2, MiaPaca-2 cells.

T2 sequence (P15056 416-766): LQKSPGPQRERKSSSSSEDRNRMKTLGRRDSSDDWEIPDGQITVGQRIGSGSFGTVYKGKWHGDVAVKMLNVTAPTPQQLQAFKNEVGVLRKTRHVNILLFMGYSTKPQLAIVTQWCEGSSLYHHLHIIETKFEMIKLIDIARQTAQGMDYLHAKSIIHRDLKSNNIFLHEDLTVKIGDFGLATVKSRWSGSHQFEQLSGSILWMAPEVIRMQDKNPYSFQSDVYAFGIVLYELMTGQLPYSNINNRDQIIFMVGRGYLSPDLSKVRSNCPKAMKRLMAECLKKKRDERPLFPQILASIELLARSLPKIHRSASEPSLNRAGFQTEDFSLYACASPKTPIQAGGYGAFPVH
T1 sequence (P04049 307-648 Y340D/Y341D): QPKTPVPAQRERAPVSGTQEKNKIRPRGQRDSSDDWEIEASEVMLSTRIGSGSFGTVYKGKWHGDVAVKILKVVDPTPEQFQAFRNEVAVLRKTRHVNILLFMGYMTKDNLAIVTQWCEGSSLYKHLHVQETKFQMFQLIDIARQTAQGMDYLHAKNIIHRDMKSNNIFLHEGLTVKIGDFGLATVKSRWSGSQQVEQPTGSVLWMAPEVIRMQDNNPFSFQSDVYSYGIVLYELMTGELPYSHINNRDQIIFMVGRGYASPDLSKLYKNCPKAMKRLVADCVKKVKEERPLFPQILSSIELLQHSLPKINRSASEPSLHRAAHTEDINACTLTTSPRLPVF

Regarding `CC(=O)Nc1cc(-c2cc(-c3cc(NC(=O)c4ccc(C(F)F)nc4)ccc3C)ccn2)ccn1` [Example 1, N-(3-(2′-acetamido-[2,4′-bipyridin]-4-yl)-4-methylphenyl)-6-(difluoromethyl)nicotinamide], the IC50 (in the assay with HCT-116 cells; in the assay with HPAF-II cells; with Pa16c cells; in assay [1]; in assay [2]; with MiaPaca-2 cells (setting [3])) was < 100 nM in each case.
Consider `Cc1ccc(NC(=O)c2cc(C(F)(F)F)cnn2)cc1-c1ccnc(-c2ccnc(N)c2)c1` [Example 2, N-(3-(2′-amino-[2,4′-bipyridin]-4-yl)-4-methylphenyl)-5-(trifluoromethyl)pyridazine-3-carboxamide], for which the IC50 (in the assay with HCT-116 cells; in the assay with HPAF-II cells; with Pa16c cells; in assay [1]; in assay [2]; in the assay on MiaPaca-2 cells (setting [3])) was < 100 nM throughout.
In the case of `COC(=O)Nc1cc(-c2cncc(-c3cc(NC(=O)c4ccc(C(F)(F)F)nc4)c(F)cc3C)c2)ccn1` [Example 3, methyl (5-(4-fluoro-2-methyl-5-(6-(trifluoromethyl)nicotinamido)phenyl)-[3,4′-bipyridin]-2′-yl)carbamate], the IC50 was < 100 nM with HCT-116 cells, < 100 nM in assay [1], 100 to 500 nM in assay [2] and < 100 nM with MiaPaca-2 cells (setting [3]).
For `CC(=O)Nc1cc(-c2cc(-c3cc(NC(=O)c4ccc(C(F)(F)F)nc4)ccc3C)nn(C)c2=O)ccn1` [Example 12], the IC50 (in assay [1]; in assay [2]; in the assay with MiaPaca-2 cells (setting [3])) was 1000 to 10000 nM throughout.
`CC(=O)Nc1cc(-c2nccc(-c3cc(NC(=O)c4ccc(C(F)F)nc4)ccc3C)n2)ccn1` [Example 14]: the IC50 in assay [1] was < 100 nM; in assay [2] it was 100 to 500 nM; with MiaPaca-2 cells (setting [3]) it was 100 to 500 nM.
On to `COC(=O)Nc1cc(-c2cc(-c3cc(NC(=O)c4ccc(C(F)(F)F)nc4)c(F)cc3C)nc(C)n2)ccn1` [Example 21], for which the IC50 in assay [1] was 500 to 1000 nM; in assay [2], 1000 to 10000 nM; with MiaPaca-2 cells (setting [3]) it was < 100 nM.
With `Cc1ccc(NC(=O)c2ccc(C(F)F)nc2)cc1-c1ccnc(-c2ccnc(NC(=O)C3CC3)c2)c1` [Example 25], the IC50 in the assay on HCT-116 cells is 100 to 500 nM; in assay [1], < 100 nM; in assay [2] it was < 100 nM; with MiaPaca-2 cells (setting [3]) it was 500 to 1000 nM.
In the case of `CC(=O)Nc1cc(-c2cc(-c3cc(NC(=O)c4ccc(C(F)(F)F)nc4)ccc3C)cn(C)c2=O)ccn1` [Example 28], the results for the IC50 (in assay [1]; in assay [2]; in the assay with MiaPaca-2 cells (setting [3])) were < 100 nM, 100 to 500 nM and 1000 to 10000 nM, respectively.
In the same order, the values of `CC(=O)Nc1cc(-c2cc(-c3cc(NC(=O)c4ccc(C(F)(F)F)nc4)ccc3C)cn(CCO)c2=O)ccn1` [Example 29] are 1000 to 10000 nM, 1000 to 10000 nM and 1000 to 10000 nM.
`COC(=O)Nc1cc(-c2nccc(-c3cc(NC(=O)c4ccc(C(F)(F)F)nc4)ccc3C)n2)ccn1` [Example 30]: the IC50 is < 100 nM in assay [1], 1000 to 10000 nM in assay [2] and 1000 to 10000 nM with MiaPaca-2 cells (MiaPaca-2 cells).
With `COC(=O)Nc1cc(-c2cc(-c3cc(NC(=O)c4ccc(C(F)(F)F)nc4)cnc3C)ccn2)ccn1` [Example 31], the IC50 is 100 to 500 nM in assay [1], 1000 to 10000 nM in assay [2] and 1000 to 10000 nM in the assay with MiaPaca-2 cells (setting [3]).
For `COC(=O)Nc1cc(-c2cccc(-c3cc(NC(=O)c4ccc(C(F)(F)F)nc4)cnc3C)c2)ccn1` [Example 32], the IC50 was < 100 nM in assay [1], 100 to 500 nM in assay [2] and 500 to 1000 nM in the assay on MiaPaca-2 cells (setting [3]).
In the same order, the values of `COC(=O)Nc1cc(-c2cccc(-c3cc(NC(=O)c4ccc(C(F)(F)F)nc4)cnc3C)c2)ncn1` [Example 33] are < 100 nM, 500 to 1000 nM and 1000 to 10000 nM.
`Cc1ccc(NC(=O)c2ccc(C(F)(F)F)nc2)cc1-c1cncc(-c2cc(N)ncn2)c1` [Example 73]: the IC50 in assay [1] was 500 to 1000 nM; in assay [2], 500 to 1000 nM; in the assay on MiaPaca-2 cells (setting [3]), 1000 to 10000 nM.
Consider `COC(=O)Nc1cc(-c2cncc(-c3cc(NC(=O)c4ccc(C(F)(F)F)nc4)ccc3C)c2)ccn1` [Example 74], for which the results for the IC50 (in assay [1]; in assay [2]; in the assay with MiaPaca-2 cells (setting [3])) were < 100 nM, 100 to 500 nM and 100 to 500 nM, respectively.
As to `COC(=O)Nc1cc(-c2cc(-c3cc(NC(=O)c4ccc(C(F)(F)F)nc4)ccc3C)cc(OCCO)n2)ccn1` [Example 77], the figures for the IC50 (in assay [1]; in assay [2]; with MiaPaca-2 cells (MiaPaca-2 cells)) were < 100 nM, < 100 nM and 1000 to 10000 nM, respectively.
As to `CC(=O)Nc1cc(-c2cccc(-c3cc(NC(=O)c4ccc(C(F)F)nc4)ccc3C)n2)ccn1` [Example 85], the IC50 in assay [1] was < 100 nM; in assay [2], 100 to 500 nM; with MiaPaca-2 cells (setting [3]), 500 to 1000 nM.
For the compound `COCC(=O)Nc1cc(-c2cncc(-c3cc(NC(=O)c4ccc(C(F)F)nc4)ccc3C)n2)ccn1` [Example 89], the IC50 with HCT-116 cells lay in the range of 1000 to 10000 nM; in assay [1], 100 to 500 nM; in assay [2] it was 1000 to 10000 nM; in the assay with MiaPaca-2 cells (setting [3]), 1000 to 10000 nM.
For `Cc1ccc(NC(=O)c2cc(C(F)(F)F)cnn2)cc1-c1ccnc(-c2cnsc2)c1` [Example 132], the IC50 in the assay with HCT-116 cells, with HPAF-II cells, in the assay on Pa16c cells and with MiaPaca-2 cells (setting [3]) was 100 to 500 nM each time.
With `Cc1ccc(NC(=O)c2cc(C#N)cnn2)cc1-c1cc(N[C@H](C)CO)nc(-c2cn[nH]c2)c1` [Example 152], the IC50 in the assay on HCT-116 cells is 100 to 500 nM; with HPAF-II cells it was 500 to 1000 nM; in assay [1], 100 to 500 nM; in assay [2], 100 to 500 nM; with MiaPaca-2 cells (setting [3]) it was < 100 nM.
`Cc1ccc(NC(=O)c2cc(C(F)(F)F)cnn2)cc1-c1cc(N[C@H](C)CO)nc(-c2c[nH]nc2N)c1` [Example 153]: the IC50 in the assay with HCT-116 cells was 100 to 500 nM; in the assay on HPAF-II cells it was 1000 to 10000 nM; in assay [1] it was < 100 nM; in assay [2], 100 to 500 nM; with MiaPaca-2 cells (setting [3]), 100 to 500 nM.
